# Assay results published in ChEMBL document CHEMBL1201862, “PubChem BioAssay data set” (2004).
#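 Dose response: 5 concentrations. Exposure: 48 h. Format: 96-well plates. Endpoint: linear interpolation; highest concentration if not reached. GI50 marks 50% less growth.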 Active and inactive are the calls of the source. Rule as the data show it: active = GI50 up to about 1.1 µM and inactive = higher.
# Experiments:
# Test in all cases: NCI tumour cell line growth inhibition, 48 h
# SNB-75 = system: SNB-75
# UACC-257 = system: UACC-257
# SF-268 = system: SF-268
# XF498 = system: XF498
# SF-539 = system: SF-539
# NCI-H522 = system: NCI-H522
# EKVX = system: EKVX
# DMS-273 = system: DMS-273
# SR = system: SR
# HT-29 = system: HT-29
# HCC 2998 = system: HCC 2998
# TK-10 = system: TK-10
# LXFL 529 = system: LXFL 529
# HOP-92 = system: HOP-92
# MOLT-4 = system: MOLT-4
# RXF 393 = system: RXF 393
# OVCAR-3 = system: OVCAR-3
# SK-MEL-5 = system: SK-MEL-5
# DLD-1 = system: DLD-1
# DMS-114 = system: DMS-114
# 786-0 = system: 786-0
# SNB-19 = system: SNB-19
# KM-20L2 = system: KM-20L2
# HCT-116 = system: HCT-116
# UO-31 = system: UO-31
# NCI-H226 = system: NCI-H226
# ACHN = system: ACHN
# HOP-18 = system: HOP-18
# RPMI-8226 = system: RPMI-8226
# UACC-62 = system: UACC-62
# HOP-62 = system: HOP-62
# Malme-3M = system: Malme-3M
# LOX IMVI = system: LOX IMVI
# SK-MEL-2 = system: SK-MEL-2
# SF-295 = system: SF-295
# M19-MEL = system: M19-MEL
# HL-60 = system: HL-60
# A549 = system: A549
# K562 = system: K562
# SK-MEL-28 = system: SK-MEL-28
# NCI-H460 = system: NCI-H460
# SK-OV-3 = system: SK-OV-3
# NCI-H23 = system: NCI-H23
# U-251 = system: U-251
# CCRF-CEM = system: CCRF-CEM
# SNB-78 = system: SNB-78
# IGROV-1 = system: IGROV-1
# SN12C = system: SN12C
# OVCAR-8 = system: OVCAR-8
# COLO 205 = system: COLO 205
# SW-620 = system: SW-620
# KM12 = system: KM12
# M14 = system: M14
# CAKI-1 = system: CAKI-1
# HCT-15 = system: HCT-15
# OVCAR-4 = system: OVCAR-4
# OVCAR-5 = system: OVCAR-5
compound,measurement,setting,value
O=C1Sc2ccccc2C(=O)N2CSCC12 (configuration not stated),GI50,SNB-75,> 100 µM (inactive)
same,GI50,UACC-257,> 100 µM (inactive)
same,GI50,SF-268,> 100 µM (inactive)
same,GI50,XF498,> 100 µM (inactive)
same,GI50,SF-539,> 100 µM (inactive)
same,GI50,NCI-H522,> 100 µM (inactive)
same,GI50,EKVX,> 100 µM (inactive)
same,GI50,DMS-273,> 100 µM (inactive)
same,GI50,SR,> 100 µM (inactive)
same,GI50,HT-29,> 100 µM (inactive)
same,GI50,HCC 2998,> 100 µM (inactive)
same,GI50,TK-10,> 100 µM (inactive)
same,GI50,LXFL 529,> 100 µM (inactive)
same,GI50,HOP-92,> 100 µM (inactive)
same,GI50,MOLT-4,> 100 µM (inactive)
same,GI50,RXF 393,> 100 µM (inactive)
same,GI50,OVCAR-3,> 100 µM (inactive)
same,GI50,SK-MEL-5,> 100 µM (inactive)
same,GI50,DLD-1,> 100 µM (inactive)
same,GI50,DMS-114,> 100 µM (inactive)
same,GI50,786-0,> 100 µM (inactive)
same,GI50,SNB-19,> 100 µM (inactive)
same,GI50,KM-20L2,> 100 µM (inactive)
same,GI50,HCT-116,> 100 µM (inactive)
same,GI50,UO-31,> 100 µM (inactive)
same,GI50,NCI-H226,> 100 µM (inactive)
same,GI50,ACHN,> 100 µM (inactive)
same,GI50,HOP-18,> 100 µM (inactive)
same,GI50,RPMI-8226,> 100 µM (inactive)
same,GI50,UACC-62,> 100 µM (inactive)
same,GI50,HOP-62,> 100 µM (inactive)
same,GI50,Malme-3M,> 100 µM (inactive)
same,GI50,LOX IMVI,> 100 µM (inactive)
same,GI50,SK-MEL-2,> 100 µM (inactive)
same,GI50,SF-295,> 100 µM (inactive)
same,GI50,M19-MEL,> 100 µM (inactive)
same,GI50,HL-60,> 100 µM (inactive)
same,GI50,A549,> 100 µM (inactive)
same,GI50,K562,> 100 µM (inactive)
same,GI50,SK-MEL-28,> 100 µM (inactive)
same,GI50,NCI-H460,> 100 µM (inactive)
same,GI50,SK-OV-3,> 100 µM (inactive)
same,GI50,NCI-H23,> 100 µM (inactive)
same,GI50,U-251,> 100 µM (inactive)
same,GI50,CCRF-CEM,> 100 µM (inactive)
same,GI50,SNB-78,> 100 µM (inactive)
same,GI50,IGROV-1,> 100 µM (inactive)
same,GI50,SN12C,> 100 µM (inactive)
same,GI50,OVCAR-8,> 100 µM (inactive)
same,GI50,COLO 205,> 100 µM (inactive)
same,GI50,SW-620,> 100 µM (inactive)
same,GI50,KM12,> 100 µM (inactive)
same,GI50,M14,> 100 µM (inactive)
CC(=O)O[C@H]1CC2C=CC3C(CCC31)O2 (some centres not stated),GI50,SNB-75,> 100 µM (inactive)
same,GI50,SF-268,> 100 µM (inactive)
same,GI50,XF498,> 100 µM (inactive)
same,GI50,EKVX,> 100 µM (inactive)
same,GI50,DMS-273,> 100 µM (inactive)
same,GI50,HT-29,> 100 µM (inactive)
same,GI50,HCC 2998,> 100 µM (inactive)
same,GI50,TK-10,> 100 µM (inactive)
same,GI50,LXFL 529,> 100 µM (inactive)
same,GI50,MOLT-4,> 100 µM (inactive)
same,GI50,RXF 393,> 100 µM (inactive)
same,GI50,OVCAR-3,> 100 µM (inactive)
same,GI50,DLD-1,> 100 µM (inactive)
same,GI50,DMS-114,> 100 µM (inactive)
same,GI50,CAKI-1,> 100 µM (inactive)
same,GI50,786-0,> 100 µM (inactive)
same,GI50,SNB-19,> 100 µM (inactive)
same,GI50,KM-20L2,> 100 µM (inactive)
same,GI50,UO-31,> 100 µM (inactive)
same,GI50,HCT-15,> 100 µM
same,GI50,ACHN,> 100 µM (inactive)
same,GI50,HOP-18,> 100 µM (inactive)
same,GI50,UACC-62,> 100 µM (inactive)
same,GI50,HOP-62,> 100 µM (inactive)
same,GI50,Malme-3M,> 100 µM (inactive)
same,GI50,LOX IMVI,> 100 µM (inactive)
same,GI50,M19-MEL,> 100 µM (inactive)
same,GI50,HL-60,80 µM (inactive)
same,GI50,OVCAR-4,> 100 µM (inactive)
same,GI50,A549,> 100 µM (inactive)
same,GI50,K562,> 100 µM (inactive)
same,GI50,SK-MEL-28,> 100 µM (inactive)
same,GI50,NCI-H460,> 100 µM (inactive)
same,GI50,SK-OV-3,> 100 µM (inactive)
same,GI50,NCI-H23,> 100 µM (inactive)
same,GI50,U-251,> 100 µM (inactive)
same,GI50,CCRF-CEM,> 100 µM (inactive)
same,GI50,SNB-78,> 100 µM (inactive)
same,GI50,IGROV-1,> 100 µM (inactive)
same,GI50,SN12C,> 100 µM (inactive)
same,GI50,OVCAR-8,> 100 µM (inactive)
same,GI50,COLO 205,> 100 µM (inactive)
same,GI50,SW-620,> 100 µM (inactive)
same,GI50,M14,> 100 µM (inactive)
CCCCC1(C(NC(=O)c2ccccc2Cl)c2ccncc2)C(=O)N(c2ccccc2)N(c2ccccc2)C1=O (configuration not stated),GI50,SNB-75,12.4 µM (inactive)
same,GI50,UACC-257,29.7 µM (inactive)
same,GI50,SF-268,> 100 µM (inactive)
same,GI50,XF498,35.9 µM (inactive)
same,GI50,SF-539,88.1 µM (inactive)
same,GI50,NCI-H522,31.6 µM (inactive)
same,GI50,EKVX,58.3 µM (inactive)
same,GI50,DMS-273,27 µM (inactive)
same,GI50,SR,55.1 µM (inactive)
same,GI50,HT-29,41.6 µM (inactive)
same,GI50,HCC 2998,57.5 µM (inactive)
same,GI50,TK-10,41 µM (inactive)
same,GI50,LXFL 529,36.2 µM (inactive)
same,GI50,OVCAR-5,> 100 µM (inactive)
same,GI50,HOP-92,39.6 µM (inactive)
same,GI50,MOLT-4,11.9 µM (inactive)
same,GI50,RXF 393,37.6 µM (inactive)
same,GI50,OVCAR-3,60 µM (inactive)
same,GI50,SK-MEL-5,18.1 µM (inactive)
same,GI50,DLD-1,39.7 µM (inactive)
same,GI50,DMS-114,41.4 µM (inactive)
same,GI50,786-0,83.4 µM (inactive)
same,GI50,SNB-19,77.6 µM (inactive)
same,GI50,KM-20L2,59.7 µM (inactive)
same,GI50,HCT-116,23.9 µM (inactive)
same,GI50,UO-31,33 µM (inactive)
same,GI50,HCT-15,38.5 µM
same,GI50,NCI-H226,66.8 µM (inactive)
same,GI50,ACHN,36.6 µM (inactive)
same,GI50,HOP-18,> 100 µM (inactive)
same,GI50,RPMI-8226,21.2 µM (inactive)
same,GI50,UACC-62,69.5 µM (inactive)
same,GI50,HOP-62,> 100 µM (inactive)
same,GI50,Malme-3M,61 µM (inactive)
same,GI50,LOX IMVI,56.9 µM (inactive)
same,GI50,SK-MEL-2,50.9 µM (inactive)
same,GI50,SF-295,55.7 µM (inactive)
same,GI50,M19-MEL,47.5 µM (inactive)
same,GI50,HL-60,17.6 µM (inactive)
same,GI50,A549,28.4 µM (inactive)
same,GI50,K562,33.5 µM (inactive)
same,GI50,SK-MEL-28,> 100 µM (inactive)
same,GI50,NCI-H460,32.8 µM (inactive)
same,GI50,SK-OV-3,74.1 µM (inactive)
same,GI50,NCI-H23,44.7 µM (inactive)
same,GI50,U-251,34 µM (inactive)
same,GI50,CCRF-CEM,27.9 µM (inactive)
same,GI50,SNB-78,56.8 µM (inactive)
same,GI50,IGROV-1,> 100 µM (inactive)
same,GI50,SN12C,94.4 µM (inactive)
same,GI50,OVCAR-8,75 µM (inactive)
same,GI50,COLO 205,22.6 µM (inactive)
same,GI50,SW-620,78.7 µM (inactive)
same,GI50,KM12,81.3 µM (inactive)
same,GI50,M14,55.7 µM (inactive)
